Assay results: article PMC11249977, “Investigating Penetration and Antimicrobial Activity of Vector-Bicycle Conjugates” (ACS Infectious Diseases, 2024)
Converted amounts (≈) assume the structure as drawn. Where two headings read alike, the source gives them in different places. Non-standard residues stand in square brackets, D forms with d. Residues, ends and D or L forms follow the SMILES beside them. Dap(N3) = [N-]=[N+]=NC[C@H](N)C(=O)O

Tested on: E. coli (ATCC25922)
Format: cell-based, Escherichia coli
Settings: for MIC (μg/ml), repeat 1 / MIC (μg/ml), repeat 2 / MIC (μg/ml), repeat 3: ATCC25922
Description: To determine how the cell killing ability of the vector-Bicycle variants changed when compared to the original vector, their antimicrobial activity was examined against a clinical strain of E. coli (ATCC25922) in cation-adjusted Mueller Hinton broth (CaMHB). The minimum inhibitory concentration (MIC) is defined as the lowest concentration of compound that completely prevents bacterial growth (Table 2). The unconjugated Bicycle molecule (AB1) and the original unconjugated vector (AV1) were used to make the MAP-Bicycle conjugate A1. All MAP-Bicycle conjugates contain the AB1 Bicycle molecule, linked to a variant of the original MAP (e.g., C2, S2, H6). The unconjugated MAP variants are labeled with the equivalent letter and number but with a “V” included in the name (e.g., CV2, SV2, HV6, see Table 1 for all vector variants).
Bacterial stock was streaked onto LB agar plates and incubated at 37 °C for 16–18 h. Using a sterile swab, single colonies were picked and resuspended in 2 mL of 0.9% saline solution, visually matching the turbidity of a 0.5 McFarland standard and having an OD600 nm of 0.18–0.25 (which corresponds to […]). The suspension was diluted 200-fold in cation-adjusted Mueller–-Hinton Broth (Ca-MHB), and 100 μL of the diluted culture was pipetted in wells of a 96-well plate containing 100 μL of a 2-factor dilution series of a compound per row of wells. The plate was incubated at 37 °C for 19 h. Afterward, the OD600 nm of each well was read using a Pherastar FSX plate reader. MIC values were determined, with the MIC being the lowest concentration of the compound at which growth was absent (i.e., OD600 nm was equivalent to no growth, as observed in carbenicillin control wells). This was also verified visually. […]

[1] = E. coli ATCC25922, CaMHB, 37 °C, 19 h, OD600 nm read, range of at least 3 biological repeats

Compound	MIC (ATCC25922, 19 h) [µM]	MIC [1] [µg/mL]	MIC (μg/ml), repeat 1 [µg/mL]	MIC (μg/ml), repeat 2 [µg/mL]	MIC (μg/ml), repeat 3 [µg/mL]
CC(C)C[C@@H](NC(=O)[C@@H](CCCNC(=N)N)NC(=O)[C@@H](CCCNC(=N)N)NC(=O)[C@H](NC(=O)[C@@H](Cc1c[nH]c2ccccc12)NC(=O)[C@@H](CCCNC(=N)N)NC(=O)[C@@H](CO)NC(=O)[C@@H](Cc1c[nH]c2ccccc12)NC(=O)[C@@H](CCCNC(=N)N)NC(=O)[C@@H](N)CN=[N+]=[N-])C(C)C)C(=O)N[C@H](CO)C(=O)N[C@H](CCCCN)C(N)=O [AV1] (H-[Dap(N3)][dR][dW][dS][dR][dW][dV][dR][dR][dL][dS][dK]-NH2; N-terminus and C-terminus assumed)	19.5	32			
CC(C)C[C@@H](NC(=O)[C@@H](CCCNC(=N)N)NC(=O)[C@@H](CCCNC(=N)N)NC(=O)[C@H](NC(=O)[C@@H](Cc1c[nH]c2ccccc12)NC(=O)[C@@H](CCCNC(=N)N)NC(=O)[C@@H](CO)NC(=O)[C@@H](CCCNC(=N)N)NC(=O)[C@@H](CCCNC(=N)N)NC(=O)[C@@H](N)CN=[N+]=[N-])C(C)C)C(=O)N[C@H](CO)C(=O)N[C@H](CCCCN)C(N)=O [CV1] (H-[Dap(N3)][dR][dR][dS][dR][dW][dV][dR][dR][dL][dS][dK]-NH2; N-terminus and C-terminus assumed)	>39.7		> 64	> 64	> 64
CC(C)C[C@@H](NC(=O)[C@@H](CCCNC(=N)N)NC(=O)[C@@H](CCCNC(=N)N)NC(=O)[C@H](NC(=O)[C@@H](Cc1c[nH]c2ccccc12)NC(=O)[C@@H](CCCNC(=N)N)NC(=O)[C@@H](CCCNC(=N)N)NC(=O)[C@@H](Cc1c[nH]c2ccccc12)NC(=O)[C@@H](CCCNC(=N)N)NC(=O)[C@@H](N)CN=[N+]=[N-])C(C)C)C(=O)N[C@H](CO)C(=O)N[C@H](CCCCN)C(N)=O [CV2] (H-[Dap(N3)][dR][dW][dR][dR][dW][dV][dR][dR][dL][dS][dK]-NH2; N-terminus and C-terminus assumed)	9.4	16			
CC(C)C[C@@H](NC(=O)[C@@H](CCCNC(=N)N)NC(=O)[C@@H](CCCNC(=N)N)NC(=O)[C@H](NC(=O)[C@@H](CCCNC(=N)N)NC(=O)[C@@H](CCCNC(=N)N)NC(=O)[C@@H](CO)NC(=O)[C@@H](Cc1c[nH]c2ccccc12)NC(=O)[C@@H](CCCNC(=N)N)NC(=O)[C@@H](N)CN=[N+]=[N-])C(C)C)C(=O)N[C@H](CO)C(=O)N[C@H](CCCCN)C(N)=O [CV3] (H-[Dap(N3)][dR][dW][dS][dR][dR][dV][dR][dR][dL][dS][dK]-NH2; N-terminus and C-terminus assumed)	>39.7		> 64	> 64	> 64
CC(C)C[C@@H](NC(=O)[C@@H](CCCNC(=N)N)NC(=O)[C@@H](CCCNC(=N)N)NC(=O)[C@@H](CCCNC(=N)N)NC(=O)[C@@H](Cc1c[nH]c2ccccc12)NC(=O)[C@@H](CCCNC(=N)N)NC(=O)[C@@H](CO)NC(=O)[C@@H](Cc1c[nH]c2ccccc12)NC(=O)[C@@H](CCCNC(=N)N)NC(=O)[C@@H](N)CN=[N+]=[N-])C(=O)N[C@H](CO)C(=O)N[C@H](CCCCN)C(N)=O [CV4] (H-[Dap(N3)][dR][dW][dS][dR][dW][dR][dR][dR][dL][dS][dK]-NH2; N-terminus and C-terminus assumed)	18.8	32			
CC(C)[C@@H](NC(=O)[C@@H](Cc1c[nH]c2ccccc12)NC(=O)[C@@H](CCCNC(=N)N)NC(=O)[C@@H](CO)NC(=O)[C@@H](Cc1c[nH]c2ccccc12)NC(=O)[C@@H](CCCNC(=N)N)NC(=O)[C@@H](N)CN=[N+]=[N-])C(=O)N[C@H](CCCNC(=N)N)C(=O)N[C@H](CCCNC(=N)N)C(=O)N[C@H](CCCNC(=N)N)C(=O)N[C@H](CO)C(=O)N[C@H](CCCCN)C(N)=O [CV5] (H-[Dap(N3)][dR][dW][dS][dR][dW][dV][dR][dR][dR][dS][dK]-NH2; N-terminus and C-terminus assumed)	19	32			
CC(C)C[C@@H](NC(=O)[C@@H](CCCNC(=N)N)NC(=O)[C@@H](CCCNC(=N)N)NC(=O)[C@H](NC(=O)[C@@H](Cc1c[nH]c2ccccc12)NC(=O)[C@@H](CCCNC(=N)N)NC(=O)[C@@H](CCCNC(=N)N)NC(=O)[C@@H](CCCNC(=N)N)NC(=O)[C@@H](CCCNC(=N)N)NC(=O)[C@@H](N)CN=[N+]=[N-])C(C)C)C(=O)N[C@H](CO)C(=O)N[C@H](CCCCN)C(N)=O [CV8] (H-[Dap(N3)][dR][dR][dR][dR][dW][dV][dR][dR][dL][dS][dK]-NH2; N-terminus and C-terminus assumed)			64 (≈ 38.1 µM)	64 (≈ 38.1 µM)	> 64
CAzal - dR dW dS dR dW dV dR dR dL dR dK – CONH2 [CV6, standalone MAP vector variant of AV1, single arginine substitution]		16			
CAzal - dR dW dS dR dW dV dR dR dR dR dK – CONH2 [CV12, standalone MAP vector variant of AV1, double arginine substitution]		16			
